“Also recorded” adds a separate entry of the source. Read-outs that look alike come from different tables or passages of the source.
Experiments:
[1] = Uninfected mice dosed with compound alone (groups of the oocyst study); assay type: in vivo; settings: for Day of Death: challenge None; for symptoms of uninfected mice dosed with compound alone: 100 or 25 mg/kg oral gavage
Method: Thus, compounds 14a and 14b were tested for efficacy in a mouse model of T. gondii oocyst infection. The oocyst form of the parasite is excreted by cats and is often the form by which people and other animals become infected. This oocyst infection in mice is very virulent, and fatal. Mice were infected by oral gavage with ME49 or TgGoatUS4 oocysts. Mice were treated with either a high dose (100 mg/kg) or low dose (25 mg/kg) of 14a or 14b 1 mL suspension via oral gavage, or were not treated. […] Treatment with 14a and 14b increased survival by 1 day (Table 6, FIGS. 8 and 9).
Five groups of B7 female mice weighing approximately 25 g were used. Group 1 received only 14a (100 mg/kg, 2.5 mg/mL, 1.0 mL) by oral gavage. Group 2 received only 14a (25 mg/kg, 0.5 mg/mL, 1.0 mL) by oral gavage. Group 3 received 14a (100 mg/kg, 2.5 mg/mL, 1.0 mL) and 100 ME49 oocysts by oral gavage. Group 4 received 14a (25 mg/kg, 0.5 mg/mL, 1.0 mL) and 100 ME49 oocysts by oral gavage. Group 5 received only 100 ME49 oocysts by oral gavage.
Five groups of B7 female mice weighing approximately 25 g were used. Group 1 received only 14b (100 mg/kg, 2.5 mg/mL, 1.0 mL) by oral gavage. Group 2 received only 14b (25 mg/kg, 0.5 mg/mL, 1.0 mL) by oral gavage. Group 3 received 14b (100 mg/kg, 2.5 mg/mL, 1.0 mL) and 100 TgGoatUS4 oocysts by oral gavage. Group 4 received 14a (25 mg/kg, 0.5 mg/mL, 1.0 mL) and 100 TgGoatUS4 oocysts by oral gavage. Group 5 received only 100 TgGoatUS4 oocysts by oral gavage.

[2] = system: HFF cells; assay: In vitro toxicity assay on host cells ([3H]-thymidine incorporation or WST-1); assay type: cell-based, Human; settings: for Toxicity: HFF cells
Method: Determination of the anti-apicomplexan activity of Compounds of Formula I may be determined by one skilled in the art. Parasite proliferation was monitored by using stably transfected type I RH-YFP parasites, which constitutively express Yellow Florescent Protein. Proliferation also was tested using a [^3H]-Uracil incorporation assay, as Uracil is incorporated into nucleic acids of T. gondii tachyzoites, but not mammalian cells, as they divide. Complimentary challenge assays ensured that the observed fluorescence data was due to parasite inhibition and not to quenched fluorescence. Pyrimethamine and sulfadiazine were used as positive controls, and DMSO at a concentration of 0.1% was used as the negative control. Because T. gondii is an obligate parasite, compounds that are toxic to host cells will appear to inhibit parasite growth. Therefore, all test compounds were simultaneously evaluated for efficacy and toxicity against human cells.
HFF cells were grown to 30% confluence in 96-well plates.
Inhibitory compounds and control media were added to wells in concentrations equal to those being tested in challenge assays. After 72 hours, [^3H]-Thymidine incorporation assay was conducted to assess cell growth. Alternatively, toxicity was assessed using WST-1 cell proliferation reagent (Roche). Confluent HFF cells were treated with inhibitory and control compounds. On the final day of experiment, 10 uL of WST-1 reagent was added to each well. Plates were incubated for 1 hour in the dark at 37° C., and absorbance was measured using Synergy H4 Hybrid Reader (BioTek) fluorometer at […].

[3] = system: P. falciparum TM90-C235; assay: Malaria SYBR Green 1-Based Fluorescence (MSF) Assay, strain TM90-C235; assay type: cell-based; settings: for efficacy against TM90-C235 compared with D6 (cross-resistance): D6 versus TM90-C235; for IC50: Plasmodium falciparum; for C235 IC50: multi-drug resistant strain TM90-C235
Method: Compound activity against P. falciparum, the causative agent of malaria, was assessed using the Malaria SYBR Green 1-Based Fluorescence (MSF) Assay. This microtiter plate drug sensitivity assay uses the presence of malarial DNA as a measure of parasitic proliferation. The assay is a microtiter plate drug sensitivity assay that uses the presence of malarial DNA as a measure of parasitic proliferation in the presence of antimalarial drugs or experimental compounds based on modifications of previously described methods (Plouffe et al., Proc Natl Acad Sci USA. 2008, 105, 9059-9064), (Johnson et al., Antimicrob. Agents Chemother. 2005, 49, 3463-3467).
Selected compounds were examined for activity against two strains of P. falciparum: D6 (CDC/Sierra Leone), a drug-sensitive and readily killed by chloroquine, and TM90-C235, a multi-drug resistant strain resistant to chloroquine.
D6 (CDC/Sierra Leone) and TM90-C235 (WRAIR, Thailand) laboratory strains of P. falciparum were used for each drug sensitivity assessment. The parasite strains were maintained continuously in long-term cultures as previously described in Johnson et al, and P. falciparum strains in late-ring or early-trophozoite stages were cultured in predosed 384-well microtiter drug assay plates in 38 μl culture volume per well at a starting parasitemia of 0.3% and a hematocrit of 2%. Pre-dosed, sterile, 384 well black optical bottom microtiter drug plates for use in the MSF assay were produced using a Tecan EVO Freedom Liquid Handling System (Tecan US, Durham, N.C.). Dose response plates were produced at a final concentration ranging from 0.5-10000 ng/ml in quadruplicate (twelve two-fold serial dilutions of each test compound or chloroquine control in DMSO. Each run was validated by a batch control plate with chloroquine (Sigma-Aldrich Co., Catalog #C6628) at a final concentration of 2000 ng/ml. The cultures were incubated for 72 hours at 37° C., 5% CO2, 5% O2 and 90% N2. Lysis buffer (38 μl per well), consisting of 20 mM Tris HCl, 5 mM EDTA, 1.6% Triton X, 0.016% saponin, and SYBR green I dye at a 20× concentration (Invitrogen, Catalog #S-7567) was then added to the assay plates utilizing the Tecan EVO Freedom system for a final SYBR Green concentration of 10×. Plates were incubated in the dark at room temperature in the dark for 24 hours.
Compound activity was assessed by examining for the relative fluorescence units (RFU) per well using the Tecan Genios Plus (Tecan US, Inc., Durham, N.C.). GraphPad Prism (GraphPad Software Inc., San Diego, Calif.) using the nonlinear regression (sigmoidal dose-response/variable slope) equation was used to determine IC50 values.

[4] = system: THdhxgTRP tachyzoites transfected with pLK47; assay: Insertional mutagenesis experiments (selection of resistant mutants); assay type: cell-based, T. gondii; settings: prolonged incubation (six weeks)
Method: Insertional mutagenesis experiments were performed.
THdhxgTRP tachyzoites were transfected with pLK47 vector plasmid. Parasites were extracted from HFF cells and resuspended in 1 mL cytomix electroporation buffer solution (120 mM KCl, 150 uM CaCl2, 5 mM K2HPO4, 5 mM KH2PO4, 25 mM HEPES, 2 mM EDTA and 5 mM MgCl2 in sterile H2O). Equivalent amounts of plasmid DNA and cytomix solution containing 10×10^7 parasites were combined for a total volume of 400 uL and electroporated using BioRad electroporator at 1.5 k, […] and 100Ω. […] Successfully transfected parasites were selected by month-long treatment with mycophenolic acid (25 ug/mL) and xanthine (50 ug/mL). After one month, the mixed mutant population were exposed to 3i, 3j, 7a or 14b to select for those mutants whose gene disruption conferred resistance to the drug.

[5] = TM90, multi-drug resistant strain TM90-C235, read-out: C235 IC50

Compound | Day of Death ([1]; 25 mg/kg oral gavage) | Day of Death ([1]; 100 mg/kg oral gavage) | symptoms of uninfected mice dosed with compound alone [1] | toxicity to human host cells, in words [2] | Toxicity [2] [nM] | efficacy against TM90-C235 compared with D6 (cross-resistance) [3] | IC50 ([3]; TM90, read-out: C235 IC50) [mg/L] | parasite growth of mixed mutant population in the presence of compound [4] | IC50 [3, 5] [mg/L] | C235 IC50 [3] [mg/L] | parasite growth of mixed mutant population in the presence of compound ([4]; hydrochloride) | IC50 ([3]; TM90, chloroquine resistant strain TM90-C235, read-out: TM90-C235 IC50) [µM]
CN(CC(=O)NN)C(=O)Oc1ccc(Cl)cc1C(=O)Nc1ccc([N+](=O)[O-])cc1Cl.Cl [Compound 14a, 4-chloro-2-((2-chloro-4-nitrophenyl)carbamoyl)phenyl (2-hydrazinyl-2-oxoethyl)(methyl)carbamate hydrochloride] | None | None | remained asymptomatic | not toxic to human host cells | >1000 | equally effective | 1.32 | – | – | – | – | –
CC(C)(C)c1cccc(NC(=O)c2cc(Cl)ccc2O)c1 [Compound 3i, N-(3-tert-butylphenyl)-5-chloro-2-hydroxybenzamide] | – | – | – | not toxic to human host cells | >1000 | two-fold higher IC50 | – | No parasite growth was observed; also recorded: No parasite growth was noted | > 2 | >2 | – | –
O=C(Nc1cc(C(F)(F)F)cc(C(F)(F)F)c1)c1cc(Cl)ccc1O [Compound 3j] | – | – | – | not toxic to human host cells | >1000 | equally effective | 0.541 | No parasite growth was observed; also recorded: No parasite growth was noted | – | – | – | –
CN(CC(=O)NN)C(=O)Oc1ccc(Cl)cc1C(=O)Nc1ccc(C(F)(F)F)cc1C(F)(F)F.Cl [Compound 14b, 2-((2,4-bis(trifluoromethyl)phenyl)carbamoyl)-4-chlorophenyl (2-hydrazinyl-2-oxoethyl)(methyl)carbamate hydrochloride] | None | None | remained asymptomatic | not toxic to human host cells | >1000 | – | – | – | – | – | No parasite growth was observed; also recorded: No parasite growth was noted | –
O=C(Oc1ccc(Cl)cc1C(=O)Nc1ccc([N+](=O)[O-])cc1Cl)c1ccccc1 [Compound 7a, 4-chloro-2-((2-chloro-4-nitrophenyl)carbamoyl)phenyl benzoate] | – | – | – | not toxic to human host cells | >1000 | equally effective | – | No parasite growth was observed; also recorded: No parasite growth was noted | 0.267 | 0.2666 | – | 0.6

Reference: patent US20130324555A1, “Method of use of pharmaceutical formulations for the treatment of apicomplexan diseases in animals” (priority 2012, published 2013)
